# Test results from US11903917B2, “MEK-inhibitor for the treatment of viral and bacterial infections” (priority 2017, dated 2024).
# Read-outs that look alike come from different tables or passages of the source.
# Key:
# S. aureus 6850 [1] = assay: Over-night treated culture, bacterial titers (CFU/ml) and OD600; assay type: cell-based, Staphylococcus aureus; conditions: for effect on bacterial titers (CFU/ml): over night treatment, S. aureus 6850, vs solvent
# S. aureus 6850 [2] = assay type: cell-based, Staphylococcus aureus
# [3] = test system: influenza A virus strain RB1 [A/Regensburg/D6/09 (H1N1 pdm09)]; assay: Progeny virus inhibition assay in A549 cells; assay type: cell-based
# [4] = Pharmacokinetics, drug in plasma after i.v. or per os application; assay type: in vivo, NMRI mice
# Method: Blood was collected at 15 min, 30 min, 1 h, 2 h, 4 h, 6 h, 8 h and 24 h (test day 2) after administration and plasma was analysed for the presence of the drug. […] Blood was collected at 15 min, 30 min, 1 h, 2 h, 4 h, 6 h, 8 h and 24 h (test day 2) after administration and plasma was analysed for the presence of the drug. Each data point represents the mean value of three plasma samples. Graphpad Prism 7 software was used to illustrate both figures.
# 34.88 mg PD-0184264 were dissolved in 0.075 ml DMSO and further diluted with 0.225 ml Cremophor EL/2.7 ml PBS. […] 81.0 mg PD-0184264 were dissolved in 0.2 ml DMSO/0.6 ml Cremophor EL/3.2 ml PBS.
# Eight week old male NMRI mice (Charles River Laboratories, Germany) with a body weight of 23.9-36.5 g at administration were used for pharmacokinetic studies. The animals were normally fed. Drinking water was available ad libitum.
# Experiments were performed at LPT GmbH (Hamburg, Germany). Sufficient whole blood—taken under isoflurane anaesthesia—was collected to obtain at least 2×100 μl Li-Heparin plasma of 3 animals per group and time-point at the following times: 0 (predose), 15 min, 30 min, 1 h, 2 h, 4 h, 6 h, 8 h and 24 h (test day 2) after administration. The whole blood samples were instantly cooled using an Iso-Therm-Rack system (Eppendorf AG, Germany) until centrifugation within 0.5 hours after withdrawal. Immediately after centrifugation, the samples were stored at −20° C. until further analysis. Plasma analysis was performed using standard procedures at Prolytic GmbH (Frankfurt, Germany).
# Drugs were either administrated using a single dosing on test day 1 by oral gavage or by Intravenous bolus injection into a tail vein. The Injection speed was 15 s/dose with an administration volume of 200 μl.
# [5] = test system: influenza A virus strain RB1 [A/Regensburg/D6/09 (H1N1 pdm09)]; conditions: against RB1, Haasbach et al. 2017; cited from earlier work
# A549 cells = conditions: read-out: CC50 value; Haasbach et al. 2017; cited from earlier work
# [6] = test system: MRSA strain S. aureus (USA300); assay: Cell-free culture bacterial growth (OD600); conditions: 50 μM, monitored for 360 minutes, vs solvent DMSO
# Method: Bacterial growth was monitored for 360 minutes.
# MRSA bacteria were incubated with different concentrations of the MEK inhibitor ranging from 0-100 μM and bacterial growth was monitored six hours after cultivation.
# S. aureus 6850 [7] = assay: MIC of antibiotics (MIC test stripes) after over-night treatment of bacteria with PD0184264; assay type: cell-based, Staphylococcus aureus; conditions: for MIC: read-out: Minimal inhibitory concentration (MIC)
# S. aureus USA300 = assay: as above; assay type: cell-based, Staphylococcus aureus; conditions: for MIC: Staphylococcus aureus, read-out: Minimal inhibitory concentration (MIC)
# S. aureus = assay: Resistance development during 17 days of constant treatment; assay type: cell-based, Staphylococcus aureus; conditions: 24 h cycles repeated for 17 days
# MRSA strain USA300 = assay: Over-night treated culture, bacterial titers (CFU/ml) and OD600; assay type: cell-based, Staphylococcus aureus
# [8] = Staphylococcus aureus, 6850, S. aureus 6850, culture treated over night with 20 μM PD0184264
# [9] = Staphylococcus aureus, 6850, S. aureus 6850, untreated (solvent) culture
# [10] = USA300, S. aureus USA300, culture treated over night with PD0184264
# [11] = USA300, S. aureus USA300, untreated (solvent) culture
# [12] = S. aureus 6850, culture treated over night with 20 μM PD0184264
# [13] = S. aureus 6850, untreated (solvent) culture
# [14] = S. aureus USA300, culture treated over night with PD0184264
# [15] = S. aureus USA300, untreated (solvent) culture
compound,measurement,setting,value
"O=C(NOCC1CC1)c1ccc(F)c(F)c1Nc1ccc(I)cc1Cl [CI-1040, 2-(2-chloro-4-iodophenylamino)-N-(cyclopropylmethoxy)-3,4-difluoro benzamide, reference compound]",effect on bacterial titers (CFU/ml),S. aureus 6850 [1],effective
same,intracellular bacterial titers,S. aureus 6850 [2],no changes in intracellular bacterial load
same,reduction of virus titer,[3],96.78±0.65%
same,drug in plasma at eight hours,[4]; 75 mg/kg i.v. application,almost no drug was detected
same,drug in plasma at eight hours,[4]; 150 mg/kg per os application,almost no drug was detected
same,EC50,[5],0.026 µM
same,CC50,A549 cells,> 312 µM
same,bacterial growth (OD600),[6],slightly inhibited
O=C(O)c1cn(C2CC2)c2cc(N3CCNCC3)c(F)cc2c1=O [Ciprofloxacin],MIC,S. aureus 6850 [7]; [8],0.12 to 0.25 µg/mL
same,MIC,S. aureus 6850 [7]; [9],0.25 µg/mL
same,MIC,S. aureus USA300; [10],4 to 8 µg/mL
same,MIC,S. aureus USA300; [11],8 µg/mL
CC[C@H]1OC(=O)[C@H](C)[C@@H](O[C@H]2C[C@@](C)(OC)[C@@H](O)[C@H](C)O2)[C@H](C)[C@@H](O[C@@H]2O[C@H](C)C[C@H](N(C)C)[C@H]2O)[C@](C)(O)C[C@@H](C)C(=O)[C@H](C)[C@@H](O)[C@]1(C)O [Erythromycin],resistance development in S. aureus,S. aureus,readily develop resistances
CC(=O)NC[C@H]1CN(c2ccc(N3CCOCC3)c(F)c2)C(=O)O1 [Linezolid],MIC,S. aureus 6850 [7]; [8],1 µg/mL
same,MIC,S. aureus 6850 [7]; [9],2 µg/mL
same,MIC,S. aureus USA300; [10],1 µg/mL
same,MIC,S. aureus USA300; [11],2 µg/mL
C[C@@H](O)[C@H]1C(=O)N2C(C(=O)O)=C(S[C@@H]3CN[C@H](C(=O)N(C)C)C3)[C@H](C)[C@H]12 [Meropenem],MIC,S. aureus 6850 [7]; [8],0.03 µg/mL
same,MIC,S. aureus 6850 [7]; [9],0.06 µg/mL
same,MIC,S. aureus USA300; [10],0.06 µg/mL
same,MIC,S. aureus USA300; [11],0.12 to 0.25 µg/mL
"N#CC(=C(/N)Sc1ccccc1N)/C(C#N)=C(\N)Sc1ccccc1N [U0126, reference compound]",effect on bacterial titers (CFU/ml),S. aureus 6850 [1],minor reduction in bacterial titers
same,effect on bacterial titers (CFU/ml),"MRSA strain USA300; over night treatment, MRSA USA300, vs solvent",minor reduction in bacterial titers
Gentamicin,Minimal inhibitory concentration (MIC),S. aureus 6850 [7]; [12],0.12 µg/mL
same,Minimal inhibitory concentration (MIC),S. aureus 6850 [7]; [13],2 µg/mL
same,Minimal inhibitory concentration (MIC),S. aureus USA300; [14],0.12 µg/mL
same,Minimal inhibitory concentration (MIC),S. aureus USA300; [15],1 µg/mL
same,reduction in bacterial titers,"S. aureus 6850 [1]; 0.5 μg/ml, over night, S. aureus 6850",no reduction in bacterial titers
same,bacterial growth,"S. aureus 6850 [1]; concentrations higher than 1 μg/ml, over night, S. aureus 6850",strongly inhibited
same,reduction in bacterial titers,"MRSA strain USA300; 0.5 μg/ml, over night, MRSA USA300",no reduction in bacterial titers
same,bacterial growth,"MRSA strain USA300; concentrations higher than 1 μg/ml, over night, MRSA USA300",strongly inhibited
same,resistance development in S. aureus,S. aureus,resistance development occurred during the first week of treatment
Penicillin,Minimal inhibitory concentration (MIC),S. aureus 6850 [7]; [12],0.25 to 0.5 µg/mL
same,Minimal inhibitory concentration (MIC),S. aureus 6850 [7]; [13],16 µg/mL
same,Minimal inhibitory concentration (MIC),S. aureus USA300; [14],8 µg/mL
same,Minimal inhibitory concentration (MIC),S. aureus USA300; [15],>256 µg/mL
